Test results published in patent US11866720B2, “Transgenic or non-transgenic plants with mutated protoporphyrinogen oxidase having increased tolerance to herbicides” (priority 2013, dated 2024).
“And” between values parts separate entries of the source, which are not always exact repeats. Identical values can stand only once.

Tests used:
[1] = tested on: transgenic Arabidopsis thaliana plants expressing wildtype or mutated PPO; assay: Germination / growth inhibition assay of transgenic Arabidopsis T2 seeds in 48-well plates; details: growth inhibition seven to ten days after seeding
[2] = tested on: transgenic soybean expressing mutated PPO; assay: Soybean segregating T1 individuals, greenhouse spray test (injury 0-9); format: in vivo, Glycine max; details: Saflufenacil 150 g ai/ha, 1 week after treatment
[3] = tested on: transgenic soybean expressing mutated PPO; assay: Soybean T0 cuttings, greenhouse spray test (injury score 0-9, 1 week after treatment); format: in vivo, Glycine max; details: for Injury score from 0-9: soybean T0 cuttings, 1 week after treatment
From the text: For testing of T0 plants, cuttings can be used. In the case of soybean plants, an optimal shoot for cutting is about 7.5 to 10 cm tall, with at least two nodes present. Each cutting is taken from the original transformant (mother plant) and dipped into rooting hormone powder (indole-3-butyric acid, IBA). The cutting is then placed in oasis wedges inside a bio-dome. Wild type cuttings are also taken simultaneously to serve as controls. The cuttings are kept in the bio-dome for 5-7 days and then transplanted to pots and then acclimated in the growth chamber for two more days. Subsequently, the cuttings are transferred to the greenhouse, acclimated for approximately 4 days, and then subjected to spray tests as indicated. Depending on the species, the plants are kept at 10-25° C. or 20-35° C. The test period extends over 3 weeks. During this time, the plants are tended and their response to the individual treatments is evaluated. Herbicide injury evaluations are taken at 2 and 3 weeks after treatment. Plant injury is rated on a scale of 0% to 100%, 0% being no injury and 100% being complete death.
Soybean cv Jake was transformed as previously described by Siminszky et al., Phytochem Rev. 5:445-458 (2006). After regeneration, transformants were transplanted to soil in small pots, placed in growth chambers (16 hr day/8 hr night; 25° C. day/23° C. night; 65% relative humidity; 130-150 microE m-2 s-1) and subsequently tested for the presence of the T-DNA via Taqman analysis. After a few weeks, healthy, transgenic positive, single copy events were transplanted to larger pots and allowed to grow in the growth chamber. An optimal shoot for cutting was about 3-4 inches tall, with at least two nodes present. Each cutting was taken from the original transformant (mother plant) and dipped into rooting hormone powder (indole-3-butyric acid, IBA). The cutting was then placed in oasis wedges inside a bio-dome. The mother plant was taken to maturity in the greenhouse and harvested for seed. Wild type cuttings were also taken simultaneously to serve as negative controls. The cuttings were kept in the bio-dome for 5-7 days and then transplanted to 3 inch pots and then acclimated in the growth chamber for two more days. […] Herbicide injury evaluations were taken at 2, 7, 14 and 21 days after treatment. Results are shown in Tables 11a-11i, and FIGS. 5, 6, and 7.
The following gives a definition of the injury scores measured above: […]

[4] = tested on: transgenic Arabidopsis thaliana plants expressing wildtype or mutated PPO; assay: Greenhouse tolerance test of transgenic T1 Arabidopsis plants (phytotox / injury rating 0-100); format: in vivo; details: +1% MSO

CC(C)N(C)S(=O)(=O)NC(=O)c1cc(-n2c(=O)cc(C(F)(F)F)n(C)c2=O)c(F)cc1Cl [Saflufenacil, saflufenacil]
Relative tolerance rate as compared to a non-transgenic Arabidopsis plant (non-transgenic = 1.0) ([1]; transgenic Arabidopsis AMATU_PPO2_F420I): 80
Relative tolerance rate as compared to a non-transgenic Arabidopsis plant (non-transgenic = 1.0) ([1]; transgenic Arabidopsis AMATU_PPO2_F420L): 192
Relative tolerance rate as compared to a non-transgenic Arabidopsis plant (non-transgenic = 1.0) ([1]; transgenic Arabidopsis AMATU_PPO2_F420M): 168
Relative tolerance rate as compared to a non-transgenic Arabidopsis plant (non-transgenic = 1.0) ([1]; transgenic Arabidopsis AMATU_PPO2_R128A_F420I): 1200
Relative tolerance rate as compared to a non-transgenic Arabidopsis plant (non-transgenic = 1.0) ([1]; transgenic Arabidopsis AMATU_PPO2_R128A_F420L): 1200
Relative tolerance rate as compared to a non-transgenic Arabidopsis plant (non-transgenic = 1.0) ([1]; transgenic Arabidopsis AMATU_PPO2_R128A_F420M): 1160
Relative tolerance rate as compared to a non-transgenic Arabidopsis plant (non-transgenic = 1.0) ([1]; transgenic Arabidopsis AMATU_PPO2_R128L): 160
Relative tolerance rate as compared to a non-transgenic Arabidopsis plant (non-transgenic = 1.0) ([1]; transgenic Arabidopsis AMATU_PPO2_dG210): 100
Relative tolerance rate as compared to a non-transgenic Arabidopsis plant (non-transgenic = 1.0) ([1]; transgenic Arabidopsis AMATU_PPO2_dG210_R128L): 1200
Relative tolerance rate as compared to a non-transgenic Arabidopsis plant (non-transgenic = 1.0) ([1]; transgenic Arabidopsis AMATU_PPO2_wt): 10
injury (0-9 point scale) ([2]; SDS10791 AmtuPPX2L R128A_F420I): 1 (2×) and 2 and 0 and 9 (4×)
injury (0-9 point scale) ([2]; SDS-10642 AmtuPPX2L R128A_F420L): 0 (6×) and 1 (2×)
injury (0-9 point scale) ([2]; SDS-10648 AmtuPPX2L R128A_F420I): 3 and 4 (3×) and 5 (3×) and 6
injury (0-9 point scale) ([2]; SDS-10652 AmtuPPX2L L397D_F420V): 3 (3×) and 5 (2×) and 4 (2×) and 6
injury (0-9 point scale) ([2]; SDS-10787 AmtuPPX2L R128A_F420L): 6 and 5 and 4 (4×) and 0 and 9
injury (0-9 point scale) ([2]; SDS-10985 AmtuPPX2L R128A_F420M): 0 (3×) and 1 (2×) and 3 and 2
injury (0-9 point scale) ([2]; SDS-10990 AmtuPPX2L R128A_F420M): 3 (4×) and 4 and 9 and 0 and 1
injury (0-9 point scale) ([2]; SDS-11034 AmtuPPX2L R128A_F420V): 0 (5×) and 5 and 1 and 2
injury (0-9 point scale) ([2]; wild type): 9
injury score 1 WAT ([3]; Soy T0 AmtuPPX2L_R128L_F420V event 1, greenhouse, 100 g ai/ha): 4
injury score 1 WAT ([3]; Soy T0 AmtuPPX2L_R128L_F420V event 1, greenhouse, 200 g ai/ha): 6
injury score 1 WAT ([3]; Soy T0 AmtuPPX2L_R128L_F420V event 2, greenhouse, 100 g ai/ha): 1
injury score 1 WAT ([3]; Soy T0 AmtuPPX2L_R128L_F420V event 2, greenhouse, 200 g ai/ha): 2
Injury score from 0-9 ([3]; AmtuPPX2L (10 events), Kixor 12.5 + 1% MSO): 2
Injury score from 0-9 ([3]; AmtuPPX2L (10 events), Kixor 25 + 1% MSO): 4
Injury score from 0-9 ([3]; AmtuPPX2L (10 events), Kixor 50 + 1% MSO): 7
Injury score from 0-9 ([3]; AmtuPPX2L_F420L (7 events), Kixor 12.5 + 1% MSO): 1
Injury score from 0-9 ([3]; AmtuPPX2L_F420L (7 events), Kixor 25 + 1% MSO): 0
Injury score from 0-9 ([3]; AmtuPPX2L_F420L (7 events), Kixor 50 + 1% MSO): 0
Injury score from 0-9 ([3]; AmtuPPX2L_F420M (8 events), Kixor 25 + 1% MSO): 0
Injury score from 0-9 ([3]; AmtuPPX2L_F420M (8 events), Kixor 50 + 1% MSO): 3
Injury score from 0-9 ([3]; AmtuPPX2L_F420M (8 events), Kixor 100 + 1% MSO): 3
Injury score from 0-9 ([3]; AmtuPPX2L_R128A_F420I (9 events), Kixor 200 + 1% MSO): 1
Injury score from 0-9 ([3]; AmtuPPX2L_R128A_F420L (6 events), Kixor 25 + 1% MSO): 0
Injury score from 0-9 ([3]; AmtuPPX2L_R128A_F420L (6 events), Kixor 50 + 1% MSO): 1
Injury score from 0-9 ([3]; AmtuPPX2L_R128A_F420L (6 events), Kixor 100 + 1% MSO): 1
Injury score from 0-9 ([3]; AmtuPPX2L_R128A_F420M (7 events), Kixor 100 + 1% MSO): 2
Injury score from 0-9 ([3]; AmtuPPX2L_R128A_F420M (7 events), Kixor 200 + 1% MSO): 2
Injury score from 0-9 ([3]; AmtuPPX2L_R128A_F420V (14 events), Kixor 100 + 1% MSO): 2
Injury score from 0-9 ([3]; AmtuPPX2L_R128A_F420V (14 events), Kixor 200 + 1% MSO): 2
Injury score from 0-9 ([3]; AmtuPPX2L_dG210 (13 events), Kixor 25 + 1% MSO): 1
Injury score from 0-9 ([3]; AmtuPPX2L_dG210 (13 events), Kixor 50 + 1% MSO): 2
Injury score from 0-9 ([3]; AmtuPPX2L_dG210 (13 events), Kixor 100 + 1% MSO): 1
Injury score from 0-9 ([3]; AmtuPPX2L_dG210_R128L (12 events), Kixor 25 + 1% MSO): 0
Injury score from 0-9 ([3]; AmtuPPX2L_dG210_R128L (12 events), Kixor 50 + 1% MSO): 1
Injury score from 0-9 ([3]; AmtuPPX2L_dG210_R128L (12 events), Kixor 100 + 1% MSO): 1
Injury score from 0-9 ([3]; NitabPPX2 (13 events), Kixor 12.5 + 1% MSO): 3
Injury score from 0-9 ([3]; NitabPPX2 (13 events), Kixor 25 + 1% MSO): 6
Injury score from 0-9 ([3]; NitabPPX2 (13 events), Kixor 50 + 1% MSO): 9
Injury score from 0-9 ([3]; NitabPPX2_R98A_F392V (9 events), Kixor 50 + 1% MSO): 0
Injury score from 0-9 ([3]; NitabPPX2_R98A_F392V (9 events), Kixor 100 + 1% MSO): 2
Injury score from 0-9 ([3]; NitabPPX2_R98A_F392V (9 events), Kixor 200 + 1% MSO): 2
Injury score from 0-9 ([3]; wild type Jake variety, Kixor 12.5 + 1% MSO): 9
Injury score from 0-9 ([3]; wild type Jake variety, Kixor 25 + 1% MSO): 9
Injury score from 0-9 ([3]; wild type Jake variety, Kixor 50 + 1% MSO): 9
Injury score from 0-9 ([3]; wild type Jake variety, Kixor 100 + 1% MSO): 9
Injury score from 0-9 ([3]; wild type Jake variety, Kixor 200 + 1% MSO): 9
Plant growth injury, scale 0-100, 100 is 100% damage ([4]; non-transgenic Arabidopsis, POST, 7 DAT, 75 g ai/ha): 98%
Plant growth injury, scale 0-100, 100 is 100% damage ([4]; non-transgenic Arabidopsis, POST, 7 DAT, 150 g ai/ha): 98%
Plant growth injury, scale 0-100, 100 is 100% damage ([4]; non-transgenic Arabidopsis, POST, 7 DAT, 300 g ai/ha): 98%
Plant growth injury, scale 0-100, 100 is 100% damage ([4]; Ø F420V 1, POST, 7 DAT, 75 g ai/ha): 39%
Plant growth injury, scale 0-100, 100 is 100% damage ([4]; Ø F420V 1, POST, 7 DAT, 150 g ai/ha): 60%
Plant growth injury, scale 0-100, 100 is 100% damage ([4]; Ø F420V 1, POST, 7 DAT, 300 g ai/ha): 77%
Plant growth injury, scale 0-100, 100 is 100% damage ([4]; Ø F420V 1 to 3, 75 g ai/ha): 42%
Plant growth injury, scale 0-100, 100 is 100% damage ([4]; Ø F420V 1 to 3, 150 g ai/ha): 60%
Plant growth injury, scale 0-100, 100 is 100% damage ([4]; Ø F420V 1 to 3, 300 g ai/ha): 76%
Plant growth injury, scale 0-100, 100 is 100% damage ([4]; Ø F420V 2, POST, 7 DAT, 75 g ai/ha): 36%
Plant growth injury, scale 0-100, 100 is 100% damage ([4]; Ø F420V 2, POST, 7 DAT, 150 g ai/ha): 55%
Plant growth injury, scale 0-100, 100 is 100% damage ([4]; Ø F420V 2, POST, 7 DAT, 300 g ai/ha): 72%
Plant growth injury, scale 0-100, 100 is 100% damage ([4]; Ø F420V 3, POST, 7 DAT, 75 g ai/ha): 51%
Plant growth injury, scale 0-100, 100 is 100% damage ([4]; Ø F420V 3, POST, 7 DAT, 150 g ai/ha): 66%
Plant growth injury, scale 0-100, 100 is 100% damage ([4]; Ø F420V 3, POST, 7 DAT, 300 g ai/ha): 78%
Plant growth injury, scale 0-100, 100 is 100% damage ([4]; Ø R128A, F420V 1, POST, 7 DAT, 75 g ai/ha): 16%
Plant growth injury, scale 0-100, 100 is 100% damage ([4]; Ø R128A, F420V 1, POST, 7 DAT, 150 g ai/ha): 18%
Plant growth injury, scale 0-100, 100 is 100% damage ([4]; Ø R128A, F420V 1, POST, 7 DAT, 300 g ai/ha): 22%
Plant growth injury, scale 0-100, 100 is 100% damage ([4]; Ø R128A, F420V 1 to 3, 75 g ai/ha): 18%
Plant growth injury, scale 0-100, 100 is 100% damage ([4]; Ø R128A, F420V 1 to 3, 150 g ai/ha): 20%
Plant growth injury, scale 0-100, 100 is 100% damage ([4]; Ø R128A, F420V 1 to 3, 300 g ai/ha): 21%
Plant growth injury, scale 0-100, 100 is 100% damage ([4]; Ø R128A, F420V 2, POST, 7 DAT, 75 g ai/ha): 22%
Plant growth injury, scale 0-100, 100 is 100% damage ([4]; Ø R128A, F420V 2, POST, 7 DAT, 150 g ai/ha): 24%
Plant growth injury, scale 0-100, 100 is 100% damage ([4]; Ø R128A, F420V 2, POST, 7 DAT, 300 g ai/ha): 22%
Plant growth injury, scale 0-100, 100 is 100% damage ([4]; Ø R128A, F420V 3, POST, 7 DAT, 75 g ai/ha): 18%
Plant growth injury, scale 0-100, 100 is 100% damage ([4]; Ø R128A, F420V 3, POST, 7 DAT, 150 g ai/ha): 18%
Plant growth injury, scale 0-100, 100 is 100% damage ([4]; Ø R128A, F420V 3, POST, 7 DAT, 300 g ai/ha): 19%
Plant growth injury, scale 0-100, 100 is 100% damage ([4]; Ø non-transgenic Arabidopsis, POST, 7 DAT, 75 g ai/ha): 98%
Plant growth injury, scale 0-100, 100 is 100% damage ([4]; Ø non-transgenic Arabidopsis, POST, 7 DAT, 150 g ai/ha): 98%
Plant growth injury, scale 0-100, 100 is 100% damage ([4]; Ø non-transgenic Arabidopsis, POST, 7 DAT, 300 g ai/ha): 98%
